Laboratory results reported in patent US20210293825A1, “METHODS FOR PRECISION THERAPEUTIC TARGETING OF HUMAN CANCER CELL MOTILITY AND KITS THEREOF” (UNITED STATES GOVERNMENT AS REPRESENTED BY THE DEPARTMENT …, priority 2018, published 2021).

Key:
[1] = test system: RAF1 in PC3 and PC3-M cells; assay: RAF1-Ser338 phosphorylation in prostate cancer cells (Western blot); format: cell-based, human; conditions: 10 μM
Protocol: PC3 and PC3-M human prostate cancer cells were treated with 10 μM KBU2046 for the indicated lengths of time; control cells (C) were treated with vehicle. Levels of RAF1-Ser^338 phosphorylation (pRaf1), total RAF1, and GAPDH proteins were then measured by Western blot.

[2] = test system: panel of 284 kinases; assay: KinaseProfiler radiometric assay platform (Millipore); format: biochemical; conditions: competition with ATP
Source text: Kinase assay system #3. KinaseProfiler™ and PhosphataseProfiler™ assay platforms (Millipore). This platform is radiometric-based (considered gold standard). It measures competition with respect to ATP for kinases and substrate protein for phosphatases. Most proteins were expressed via an insect-based system, and it evaluates a panel of 284 kinases and 20 phosphatases. […] Important negative findings include: MKK4, MKK6, p38 MAPK, MAPKAPK2, RAF1, ERK, MEK1, JNK1, 2 and 3, and numerous other MAPK cascade-associated kinases.

[3] = test system: human prostate, breast, colon and lung cancer cells; assay: Single cell migration (motility) assay; format: cell-based; conditions: 10 μM, 3 days
Source text: FIG. 1a is a schematic flow of probe synthesis and development strategy. […] Values are mean±SEM of a single experiment in replicates of N=4, with similar findings in multiple separate experiments (also N=4). […] Values are mean±SEM of a single experiment in replicates of N=24, with similar findings in a separate experiment (also N=24). *Denotes Student's t test P value <0.05, compared to controls. […] Values are mean±SEM from N>2 separate experiments, each in replicates of N=3. […] Values are the mean±SD number of total, CFU-GM, CFU-GEMM or BFU-E colonies at 14 days after treatment with KBU2046, from a single experiment in replicates of N=2. […] Values are the mean±SD of a single experiment, with similar results seen in a separate experiment, both in replicates of N=2.
Cell Migration Assays. Single cell motility assays were conducted by adding 10^4 cells to 35 mm tissue culture dishes (BD Falcon) coated with collagen I (BD Biosciences), incubating at 37° C. in 5% CO2, performing time-lapse imaging using a Biostation (Nikon Instruments), tracking the path of N≥35 cells using ImageJ software and the Manual Tracker plug-in, and using Chemotaxis and Migration Tool plug-in for data analysis.

[4] = Examination of organ function after a single intravenous dose; format: in vivo; conditions: single IV dose 15, 75 or 125 mg/kg, day 8 and 14
Protocol: Histologic examination of tissue. Organs of athymic male mice stained with H&E, Trichrome or Giemsa were microscopically examined by a mouse pathologist in a blinded fashion, and toxicity scored using an established semi-quantitative histological scoring system (Knodell, R. G. et al., Hepatology 1, 431-5 (1981)) (FIG. 14). The following clinical chemistry parameters were measured in blood of CD1 male and female mice by Charles River Research Animal Diagnostic Services: cholesterol, triglycerides, alanine aminotransferase (ALT), aspartate aminotransferase (AST), total bilirubin, glucose, phosphorus, total protein, calcium, blood urea nitrogen (BUN), creatinine, albumin, Na, K, Cl, white blood cells (with differential), red blood cells, hemoglobin, and platelets.
For examination of organ function, studies used cohorts of 22-24 gm N=3 female and N=3 male (i.e., N=6 mice total per dose cohort) CD1 (ICR) mice (Charles River). […] On day 8 and 14, important organs were weighed, and the following parameters measured in blood: cholesterol, triglycerides, alanine aminotransferase (ALT), aspartate aminotransferase (AST), total bilirubin, glucose, phosphorus, total protein, calcium, blood urea nitrogen (BUN), creatinine, albumin, Na, K, Cl, white blood cells (with differential), red blood cells, hemoglobin, platelets.

[5] = test system: client protein binding to CDC37/HSP90β heterocomplexes; assay: Modified LUMIER assay; format: cell-based
Protocol: (§1) HEK293T cells were transfected with 1 of 420 different protein kinases, treated with 10 μM KBU2046 (N=5 replicates) or vehicle control (N=5) for three days, and LUMIER assays performed. The N=17 kinases that gave significant findings (Student's t-test <0.05) in the same direction in each of two separate experiments are depicted. Each separate treatment and kinase condition in each of two separate experiments was conducted in replicates of N=5. […] FIGS. 6c and 6d show the results of the wound healing assay. PC3 cells were transfected with siRNA targeting RAF1 (si-Raf1) or non-targeting siRNA (si-control), treated with KBU2046 or vehicle as above, and RAF1 protein measured by Western blot (c) and effects upon wound healing measured (d). […] Purified recombinant HSP90β, CDC37, and RAF1 were combined with KBU2046, as indicated, incubated in an in vitro kinase assay for the indicated times, and Western blot for RAF1-Ser^338 phosphorylation performed. FIGS. 6f and 6g show the effect on HSP90β/CDC37 heterocomplex formation and function in vitro. Purified recombinant HSP90β, CDC37, RAF1, SGK3 or MAP3K6 were combined and treated with KBU2046 or vehicle control, as indicated, incubated in an in vitro kinase assay for the indicated times, and Western blot performed, as denoted. Experiments were repeated at separate times at least once, with similar results.
(§2) To examine whether this is associated with an altered signature of bound client kinase proteins, a modified LUMIER assay (Taipale, M. et al., Cell 150, 987-1001 (2012)) was performed to detect KBU2046-induced changes in client protein binding to CDC37/HSP90β heterocomplexes in intact cells. […] These findings are in contrast to classical inhibitors of HSP90 function which have been shown, through this same assay, to affect the binding of the majority client kinase proteins (Taipale, M. et al., Cell 150, 987-1001 (2012)).
(§3) LUMIER assay. The LUMIER assay was performed as described (Taipale, M. et al., Cell 150, 987-1001 (2012)).
(§4) Experiments had N=5 vehicle treated control plus N=5 KBU2046 treated separate wells of cells. Those yielding a t-test p value <0.05 in experiment #1, or those whose values were at or below baseline, were repeated in experiment #2. […] Of 420 kinase proteins tested, 17 (4%) met these criteria (FIG. 6a). For these 17 kinases, the experiment was repeated except that HEK293T cells were treated with TGFβ for the last 24 hrs of the 3 day incubation (FIG. 6b).

[6] = biological target: T1, client protein binding to CDC37/HSP90β heterocomplexes (Homo sapiens, UniProt P08238+Q16543); assay: Modified LUMIER assay; format: cell-based
T1 construct: expressed in transfected cells; host or cells: HEK293T
T1 sequence (P08238 2-724): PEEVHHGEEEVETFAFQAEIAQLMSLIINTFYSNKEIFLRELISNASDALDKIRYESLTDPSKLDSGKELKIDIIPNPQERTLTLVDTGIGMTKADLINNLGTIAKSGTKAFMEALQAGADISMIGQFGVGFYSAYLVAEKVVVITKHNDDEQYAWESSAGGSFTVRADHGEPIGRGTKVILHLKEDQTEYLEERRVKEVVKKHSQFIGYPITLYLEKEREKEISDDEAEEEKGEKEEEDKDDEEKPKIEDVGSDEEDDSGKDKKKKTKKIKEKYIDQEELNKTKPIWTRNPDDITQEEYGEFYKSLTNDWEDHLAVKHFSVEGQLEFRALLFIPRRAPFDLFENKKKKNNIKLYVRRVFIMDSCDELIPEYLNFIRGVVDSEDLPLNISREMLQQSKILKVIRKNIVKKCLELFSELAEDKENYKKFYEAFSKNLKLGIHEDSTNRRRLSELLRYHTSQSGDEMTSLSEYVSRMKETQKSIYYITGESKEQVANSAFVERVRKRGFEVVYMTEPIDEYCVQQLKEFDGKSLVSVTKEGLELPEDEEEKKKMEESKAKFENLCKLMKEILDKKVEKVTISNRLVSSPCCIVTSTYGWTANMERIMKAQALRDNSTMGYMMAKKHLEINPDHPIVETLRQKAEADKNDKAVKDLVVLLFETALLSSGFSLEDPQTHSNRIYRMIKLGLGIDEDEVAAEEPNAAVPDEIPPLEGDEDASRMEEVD
T1 sequence (Q16543 whole entry): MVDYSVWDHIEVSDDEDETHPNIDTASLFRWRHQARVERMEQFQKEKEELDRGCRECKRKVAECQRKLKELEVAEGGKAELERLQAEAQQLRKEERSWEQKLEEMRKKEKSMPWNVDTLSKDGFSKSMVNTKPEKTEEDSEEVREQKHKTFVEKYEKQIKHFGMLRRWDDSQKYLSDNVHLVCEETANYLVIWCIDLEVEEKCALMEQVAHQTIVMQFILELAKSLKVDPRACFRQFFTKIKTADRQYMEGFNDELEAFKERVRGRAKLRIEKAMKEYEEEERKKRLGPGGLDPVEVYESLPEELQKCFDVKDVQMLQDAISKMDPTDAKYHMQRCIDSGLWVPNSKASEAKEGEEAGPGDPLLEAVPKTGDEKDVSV
Protocol: as §1, §2, §3, §4

For O=C1c2ccccc2OCC1c1ccc(F)cc1 (racemic) [KBU2046, (±)-3(4-fluorophenyl)chroman-4-one], the “levels of phospho-RAF1” value [1] was “decreased levels of phospho-RAF1 in a time-dependent manner”, the “inhibition of kinase activity” value [2] was “no evidence that KBU2046 inhibits kinase activity” and the “inhibition of cell migration” value [3] was “inhibited the migration”. The “organ weights and blood parameters” value [4] was “No abnormal alterations in any of these parameters were observed”, the “number of kinases with decreased binding” value ([5]; 10 μM, 3 days) was 7 and the “number of kinases with increased binding” value ([5]; 10 μM, 3 days) was 10. The “share of kinases whose binding was significantly changed” value ([5]; of 420 kinase proteins) was 4%, the “number of kinases whose binding was significantly changed” value ([5]; of 420 kinase proteins, 10 μM, 3 days) was 17 and the “RAF1 binding to complexes” value ([6]; TGFβ treated cells) was “decreased binding”. The “RIPKI binding to complexes” value ([6]; TGFβ treated cells) was “decreased”, the “SGK3 binding to complexes” value ([6]; TGFβ treated cells) was “increased” and the “MAP3K6 binding to complexes” value ([6]; intact cells) was “increases MAP3K6 binding to complexes”.
